Reference: US6638919B2, “Antiviral purine derivatives” (University College Cardiff Consultants Limited, priority 2001, dated 2003)
pEC50: −log10 of the molar value. Counter-ions that a name gives are not always drawn.

How the values were obtained:
Assay type in all cases: cell-based
[1] = test system: HIV-1; assay: Inhibition of HIV-1 giant cell formation in CEM cells; conditions: Table III; EC50 for inhibition of HIV1 in CEM cells; read-out: HIV1 CBM
Description: (§1) Then 100 μL of the infected cell suspension was transferred to microtiter plate wells and mixed with 100 μL of the appropriate dilutions of the test compounds.
HIV 1 CEM: EC50 in μM for inhibition of HIV1 in CEM cells

[2] = test system: CEM cells; assay: Toxicity to mock-infected CEM cells (CC50); conditions: Table III; toxicity to CEM cells; read-out: CC50 CEN
Description: as §1
CC50 CEM: CC50 in μM for toxicity to CEM cells.
CC50 CEM: CC50 μM for toxicity to CEM cells

[3] = test system: HIV-2; assay: Inhibition of HIV-2 giant cell formation in CEM cells; conditions: Table III; EC50 for inhibition of HIV-2 in CEM cells; read-out: HIV2 CBM
Description: as §1
HIV1 CEM: EC50 in μM for inhibition of […] in CEM cells.
HIV2 CEM: EC50 in μM for inhibition of HIV-2 in CEM cells

[4] = test system: MSV; assay: Minimum cytotoxic concentration in MSV assay; design: unit not given here; conditions: Table III
Excerpt: MCC MSV: minimum cytotoxic concentration in MSV essay.

[5] = test system: MSV; assay: Inhibition of MSV; conditions: Table III; inhibition of MSV; read-out: EC50 MSV
Description: EC50 MSV: EC50 μM for inhibition of MSV

Row | Compound | pEC50 [1] | CC50 [2] [µM] | pEC50 [3] | MCCMSV [4] | pEC50 [5]
1 | CC[C@H](C)[C@H](NP(=O)(OC[C@@H]1C=C[C@H](n2cnc3c(NC4CC4)nc(N)nc32)C1)Oc1ccccc1)C(=O)OC (stereo partly drawn) [Compound 1751, (1S,4R)-4-(2-amino-6-cyclpropylamino-9H purin-9-yl)-2-cyclopentene-1-methanol O-(phenylmethoxy-L-isoleucinyl phosphate)] | 5.15 | 24.2 | 5.27 | – | –
2 | COC(=O)CNP(=O)(OC[C@@H]1C=C[C@H](n2cnc3c(NC4CC4)nc(N)nc32)C1)Oc1ccccc1 (stereo partly drawn) [Compound 1588, (1 S,4R)-4-(2-amino-6-cyclopropylamino-9H-purin-9-yl)-2-cyclopentene-1-methanol O-[phenyl-(methoxy-glycinyl)]-phosphate] | 5.75 | ≥ 100 | 5.70 | – | –
3 | CCOC(=O)C[C@H](NP(=O)(OC[C@@H]1C=C[C@H](n2cnc3c(NC4CC4)nc(N)nc32)C1)Oc1ccccc1)C(=O)OCC (stereo partly drawn) [Compound 1714, (1S,4R)-4-(2-amino-6-cyclopropylamino-9H-purin-9-yl)-2-cyclopeutene-1-methanol O-(phenyldiethoxy-L-aspartyl phosphate)] | 6.26 | 23.1 | 5.68 | >20 | 5.14
4 | COC(=O)[C@H](C)NP(=O)(OC[C@@H]1C=C[C@H](n2cnc3c(NC4CC4)nc(N)nc32)C1)Oc1ccc(Br)cc1 (stereo partly drawn) [Compound 1710, (1S,4R)-4-(2-amino-6-cyclopropylamino-9H-purin-9-yl)-2-cyclopentene-1-methanol O-[4-bromophenyl-(methoxy-L-alaninyl)]-phosphate] | 8.26 | 5.78 | 7.31 | >0.8 | 6.29
5 | COC(=O)C(C)(C)NP(=O)(OC[C@@H]1C=C[C@H](n2cnc3c(NC4CC4)nc(N)nc32)C1)Oc1ccccc1 (stereo partly drawn) [Compound 1584, (1S,4R)-4-(2-amino-6-cyclopropylamino-9H-purin-9-yl)-2-cyclopentene-1-methanol O-[phenyl-(methoxy-α,adimethylglycinyl)]-phosphate] | 7.17 | 8.91 | 7.22 | – | –
6 | C[C@H](NP(=O)(OC[C@@H]1C=C[C@H](n2cnc3c(NC4CC4)nc(N)nc32)C1)Oc1ccccc1)C(=O)OCC1CCCCC1 (stereo partly drawn) [Compound 1708, (1S,4R)-4-(2-amino-6-cyclopropylamino-9H-purin-9-yl)-2cyclopentene-1-methanol O-Phenyl-(cyclobexane-methoxy-L-alaninyl)-phosphate] | 6.82 | 15.1 | 6.80 | >4 | 5.89
7 | COC(=O)C[C@H](NP(=O)(OC[C@@H]1C=C[C@H](n2cnc3c(NC4CC4)nc(N)nc32)C1)Oc1ccccc1)C(=O)OC (stereo partly drawn) [Compound 1589, (1S,4R)-4-(2-amino-6-cyclopropylamin9H-purin-9-yl)-2-cyclopentene-1-methanol O-[phenyl-(L-asparic acid dimethyl ester)]-phosphate] | 5.85 | 44.2 | 5.72 | – | –
8 | CCCOC(=O)[C@H](C)NP(=O)(OC[C@@H]1C=C[C@H](n2cnc3c(NC4CC4)nc(N)nc32)C1)Oc1ccccc1 (stereo partly drawn) [Compound 1646, (1S,4R)-4-(2-amino-6-cyclopropylamino-9H-purin-9-Sl)-2-cyclopentene-1-methanol O-Phenyl-(n-propoxy-L-alaninyl)-phosphate] | 7.03 | 9 | 6.92 | >4 | 5.70
9 | CC(C)CCOC(=O)C(C)NP(=O)(OC[C@@H]1C=C[C@H](n2cnc3c(NC4CC4)nc(N)nc32)C1)Oc1ccccc1 (stereo partly drawn) [Compound 1674, (1S,4R)-4-(2-amino-6-cyclopropylamino-9H-purin-9-yl)-2-cyclopentene-1-methanol O-(phenyl (3-methylbutyl)oxyalaninyl phosphate)] | – | 10.7 | 6.60 | >4 | 5.69
10 | CCCCCOC(=O)[C@H](C)NP(=O)(OC[C@@H]1C=C[C@H](n2cnc3c(NC4CC4)nc(N)nc32)C1)Oc1ccccc1 (stereo partly drawn) [Compound 1706, (1S,4R)-4-(2-amino-6-cyclopropylamino-9H-purin-9-yl)-2-cyclopentene-1-methanol 0-Phenyl-(n-pentyloxy-L-alaninyl)-phosphate] | 7.19 | 16.4 | 7.10 | >4 | 5.84
11 | C[C@H](NP(=O)(OC[C@@H]1C=C[C@H](n2cnc3c(NC4CC4)nc(N)nc32)C1)Oc1ccccc1)C(=O)OCc1ccccc1 (stereo partly drawn) [Compound 1582, (1S,4R)-4-(2-amino-6-cyclopropylamino-9H-purin-9-yl)-2-cyclopentene-1-methanol O-[phenyl-(enzoxy-L-alaninyl)]-phosphate] | 7.08 | 12.5 | 6.96 | – | –
12 | COC(=O)[C@H](Cc1c[nH]c2ccccc12)NP(=O)(OC[C@@H]1C=C[C@H](n2cnc3c(NC4CC4)nc(N)nc32)C1)Oc1ccccc1 (stereo partly drawn) [Compound 1750, (1S,4R)-4-(2-amino-6-cyclopropylamino-9H-purin-9-yl)-2cyclopentene-1-methanol O-(phenylmethoxy-L-tryptophanyl phosphate)] | 5.52 | 18.3 | 5.44 | – | –
13 | COC(=O)[C@@H](C)NP(=O)(OC[C@@H]1C=C[C@H](n2cnc3c(NC4CC4)nc(N)nc32)C1)Oc1ccccc1 (stereo partly drawn) [Compound 1583, (1 S,4R)-4-(2-amino-6-cyclopropyiamino-9H-purin-9-yl)-2-cyclopentene-1-methanol O-[phenyl-(methoxy-D-alaninyl)]-phosphate] | 5.86 | 64.3 | 5.35 | – | –
14 | COC(=O)CC[C@H](NP(=O)(OC[C@@H]1C=C[C@H](n2cnc3c(NC4CC4)nc(N)nc32)C1)Oc1ccccc1)C(=O)OC (stereo partly drawn) [Compound 1749, (1S,4R)-4-(2-amino6-cyclopropylamino-9H-purin-9-yl)-2-cyclopentene-1-methanol O-(phenyldimethoxy-L-glutamyl phosphate)] | 5.46 | 36.9 | 5.27 | – | –
15 | C[C@H](NP(=O)(OC[C@@H]1C=C[C@H](n2cnc3c(NC4CC4)nc(N)nc32)C1)Oc1ccccc1)C(=O)OC1CCCCCC1 (stereo partly drawn) [Compound 1752, (1S,4R)-4-(2-amino-6-cyclopropylamino-9-H-purin-9-yl)2-cyclopentene-1-methanol O-(phenyl (cycloheptanyl)oxyalaninyl phosphate)] | 5.89 | 6.32 | 5.98 | – | –
16 | COC(=O)[C@H](Cc1ccccc1)NP(=O)(OC[C@@H]1C=C[C@H](n2cnc3c(NC4CC4)nc(N)nc32)C1)Oc1ccccc1 (stereo partly drawn) [Compound 1585, (1,S,4R)-4-(2-amino-6-cyclopropylamino-9H-purin-9-yl)-2-cyclopentee-1-methain O-[phenyl-(methoxy-L-phenylalaninyl)]-phosphate] | 5.85 | 36.1 | 5.67 | – | –
17 | C[C@H](NP(=O)(O)OC[C@@H]1C=C[C@H](n2cnc3c(NC4CC4)nc(N)nc32)C1)C(=O)O [Compound 1540, (1S,4R)-4-(2-amino-6-cyclopropylamino-9H-purin-9-yl)-2-cyclopentene-1-methanol O-(L-alaninyl)-phosphate diammonium salt] | 5.92 | 115 | 6.02 | – | –
